Measurements: ChEMBL document CHEMBL1151360, “Antibiotic principle of Eupatorium capillifolium” (1981)
Active and inactive are the calls of the source. The calls are words filed in the database; no cut-off is given here.

How the values were obtained:
Escherichia coli [1] = assay: Antibacterial activity against Escherichia coli ATCC 10536 in complex natural medium by disc-plate assay; type: functional, organism-based
Bacillus subtilis [2] = assay: Antibacterial activity against Bacillus subtilis ATCC 6633 at 750 ug/mL in complex natural medium by disc-plate assay; type: functional, organism-based
Bacillus subtilis [3] = assay: Antibacterial activity against Bacillus subtilis ATCC 6633 at 750 ug/mL in synthetic medium by disc-plate assay in presence of 30 ug/mL glutamic acid; type: functional
Bacillus subtilis [4] = assay: Antibacterial activity against Bacillus subtilis ATCC 6633 at 250 ug/mL in synthetic medium by disc-plate assay; type: functional; settings: read-out: IZ
Bacillus subtilis [5] = assay: Antibacterial activity against Bacillus subtilis ATCC 6633 at 500 ug/mL in synthetic medium by disc-plate assay; type: functional; settings: read-out: IZ
Bacillus subtilis [6] = assay: Antibacterial activity against Bacillus subtilis ATCC 6633 at 750 ug/mL in synthetic medium by disc-plate assay in presence of 60 ug/mL glutamic acid; type: functional
Bacillus subtilis [7] = assay: Antibacterial activity against Bacillus subtilis ATCC 6633 at 15 ug/mL in synthetic medium by disc-plate assay; type: functional; settings: read-out: IZ
Bacillus subtilis [8] = assay: Antibacterial activity against Bacillus subtilis ATCC 6633 at 750 ug/mL in synthetic medium by disc-plate assay in presence of 5000 ug/mL glutamic acid; type: functional
Bacillus subtilis [9] = assay: Antibacterial activity against Bacillus subtilis ATCC 6633 at 120 ug/mL in synthetic medium by disc-plate assay; type: functional; settings: read-out: IZ
Bacillus subtilis [10] = assay: Antibacterial activity against Bacillus subtilis ATCC 6633 at 750 ug/mL in synthetic medium by disc-plate assay in presence of 1000 ug/mL glutamic acid; type: functional
Staphylococcus aureus = assay: Antibacterial activity against Staphylococcus aureus ATCC 6538P in complex natural medium by disc-plate assay; type: functional, organism-based
Bacillus subtilis [11] = assay: Antibacterial activity against Bacillus subtilis ATCC 6633 at 30 ug/mL in synthetic medium by disc-plate assay; type: functional; settings: read-out: IZ
Bacillus subtilis [12] = assay: Antibacterial activity against Bacillus subtilis ATCC 6633 at 750 ug/mL in synthetic medium by disc-plate assay in presence of 750 ug/mL glutamic acid; type: functional
Bacillus subtilis [13] = assay: Antibacterial activity against Bacillus subtilis ATCC 6633 at 750 ug/mL in synthetic medium by disc-plate assay in presence of 250 ug/mL glutamic acid; type: functional
Bacillus subtilis [14] = assay: Antibacterial activity against Bacillus subtilis ATCC 6633 at 750 ug/mL in synthetic medium by disc-plate assay in presence of 10 ug/mL glutamic acid; type: functional
Bacillus subtilis [15] = assay: Antibacterial activity against Bacillus subtilis ATCC 6633 at 750 ug/mL in synthetic medium by disc-plate assay in presence of 3000 ug/mL glutamic acid; type: functional
Escherichia coli [16] = assay: Antibacterial activity against Escherichia coli ATCC 10536 in synthetic medium by disc-plate assay; type: functional, organism-based
Bacillus subtilis [17] = assay: Antibacterial activity against Bacillus subtilis ATCC 6633 at 60 ug/mL in synthetic medium by disc-plate assay; type: functional; settings: read-out: IZ
Bacillus subtilis [18] = assay: Antibacterial activity against Bacillus subtilis ATCC 6633 at 750 ug/mL in synthetic medium by disc-plate assay in presence of 120 ug/mL glutamic acid; type: functional
Bacillus subtilis [19] = assay: Antibacterial activity against Bacillus subtilis ATCC 6633 at 750 ug/mL in synthetic medium by disc-plate assay; type: functional; settings: read-out: IZ
Bacillus subtilis [20] = assay: Antibacterial activity against Bacillus subtilis ATCC 6633 at 750 ug/mL in synthetic medium by disc-plate assay in presence of 500 ug/mL glutamic acid; type: functional

C=C(C(=O)O)[C@@H]1CC[C@@]2(C)CCCC(=C)[C@@H]2C1 [COSTIC ACID]
Activity (Escherichia coli [1]): inactive
Activity (Bacillus subtilis [2]): inactive
inhibition (INH) (Bacillus subtilis [3]): 40%
inhibition zone (IZ) (Bacillus subtilis [3]): 24 mm
zone of inhibition at 250 µg/mL (Bacillus subtilis [4]): 22 mm
zone of inhibition at 500 µg/mL (Bacillus subtilis [5]): 24 mm
inhibition (INH) (Bacillus subtilis [6]): 60%
inhibition zone (IZ) (Bacillus subtilis [6]): 22.5 mm
zone of inhibition at 15 µg/mL (Bacillus subtilis [7]): 0 mm
inhibition (INH) (Bacillus subtilis [8]): 89%
inhibition zone (IZ) (Bacillus subtilis [8]): 18 mm
zone of inhibition at 120 µg/mL (Bacillus subtilis [9]): 19 mm
inhibition (INH) (Bacillus subtilis [10]): 89%
inhibition zone (IZ) (Bacillus subtilis [10]): 18 mm
Activity (Staphylococcus aureus): inactive
zone of inhibition at 30 µg/mL (Bacillus subtilis [11]): 14.5 mm
inhibition at 750 µg/mL (Bacillus subtilis [12]): 85%
zone of inhibition at 750 µg/mL (Bacillus subtilis [12]; read-out: IZ): 19 mm
inhibition (INH) (Bacillus subtilis [13]): 74%
inhibition zone (IZ) (Bacillus subtilis [13]): 21 mm
inhibition (INH) (Bacillus subtilis [14]): 0%
inhibition zone (IZ) (Bacillus subtilis [14]): 26 mm
inhibition (INH) (Bacillus subtilis [15]): 89%
inhibition zone (IZ) (Bacillus subtilis [15]): 18 mm
Activity (Escherichia coli [16]): inactive
zone of inhibition at 60 µg/mL (Bacillus subtilis [17]): 16.5 mm
inhibition (INH) (Bacillus subtilis [18]): 74%
inhibition zone (IZ) (Bacillus subtilis [18]): 21 mm
zone of inhibition at 750 µg/mL (Bacillus subtilis [19]): 26 mm
inhibition (INH) (Bacillus subtilis [20]): 80%
inhibition zone (IZ) (Bacillus subtilis [20]): 20 mm
